Measurements as given in article PMC10653547, “Synergistic effect of two antimicrobial peptides, BP203 and MAP-0403 J-2 with conventional antibiotics against colistin-resistant Escherichia coli and Klebsiella pneumoniae clinical isolates” (PLOS ONE, 2023).

Assays:
[1] = system: colistin-resistant E. coli clinical isolates; assay: Disk diffusion antimicrobial susceptibility testing (CLSI); type: cell-based, Escherichia coli
[2] = system: colistin-resistant K. pneumoniae clinical isolates; assay: as above; type: cell-based, Klebsiella pneumoniae
[3] = system: colistin-resistant E. coli clinical isolates; assay: Checkerboard assay for synergy testing; type: cell-based, Escherichia coli; details: checkerboard Ceftazidime+MAP-0403 J-2
Outline: (§1)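 Two-fold serial dilutions of peptide and antibiotic, alone and in combination, in CAMHB against colistin-resistant clinical isolates at 5 × 10^5 CFU/mL, 37 °C for 20–24 h. MIC is the lowest concentration with no growth; FICI = sum of each agent's MIC in combination divided by its MIC alone.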

[4] = system: colistin-resistant K. pneumoniae clinical isolates; assay: Checkerboard assay for synergy testing; type: cell-based, Klebsiella pneumoniae; details: checkerboard Ceftazidime+MAP-0403 J-2
Outline: as §1

Q: For `CC(C)(O/N=C(\C(=O)N[C@@H]1C(=O)N2C(C(=O)[O-])=C(C[n+]3ccccc3)CS[C@H]12)c1csc(N)n1)C(=O)O` [CAZ, ceftazidime], which “Interpreted results of disk diffusion” value ([1]; EC-01) is on record?
A: R

Q: What about the “Interpreted results of disk diffusion” value ([1]; EC-02) of the same compound?
A: I

Q: What about the “Interpreted results of disk diffusion” value ([1]; EC-03) of the same compound?
A: R

Q: And the “Interpreted results of disk diffusion” value ([1]; EC-04)?
A: R

Q: What about the “Interpreted results of disk diffusion” value ([1]; EC-05) of the same compound?
A: S

Q: What about the “Interpreted results of disk diffusion” value ([1]; EC-06) of the same compound?
A: R

Q: And the “Interpreted results of disk diffusion” value ([1]; EC-07)?
A: I

Q: And the “Interpreted results of disk diffusion” value ([1]; EC-08)?
A: S

Q: And the “Interpreted results of disk diffusion” value ([1]; EC-09)?
A: I

Q: And the “Interpreted results of disk diffusion” value ([1]; EC-10)?
A: S

Q: What about the “%Resistance” value ([1]; ten E. coli isolates, disk diffusion) of the same compound?
A: 40%

Q: What about the “Interpreted results of disk diffusion” value ([2]; KP-01) of the same compound?
A: R

Q: And the “Interpreted results of disk diffusion” value ([2]; KP-02)?
A: R

Q: What about the “Interpreted results of disk diffusion” value ([2]; KP-03) of the same compound?
A: R

Q: And the “Interpreted results of disk diffusion” value ([2]; KP-04)?
A: R

Q: And the “Interpreted results of disk diffusion” value ([2]; KP-05)?
A: R

Q: And the “Interpreted results of disk diffusion” value ([2]; KP-06)?
A: R

Q: And the “Interpreted results of disk diffusion” value ([2]; KP-07)?
A: R

Q: And the “Interpreted results of disk diffusion” value ([2]; KP-08)?
A: R

Q: And the “Interpreted results of disk diffusion” value ([2]; KP-09)?
A: R

Q: What about the “Interpreted results of disk diffusion” value ([2]; KP-10) of the same compound?
A: R

Q: What about the “%Resistance” value ([2]; ten K. pneumoniae isolates, disk diffusion) of the same compound?
A: 100%

Q: What about the MIC alone ([3]; isolate EC-01) of the same compound?
A: 8 µg/mL

Q: And the MIC combination ([3]; isolate EC-01)?
A: 0.5 µg/mL

Q: And the MIC alone ([3]; isolate EC-02)?
A: 16 µg/mL

Q: And the MIC combination ([3]; isolate EC-02)?
A: 4 µg/mL

Q: What about the MIC alone ([3]; isolate EC-03) of the same compound?
A: 16 µg/mL

Q: What about the MIC combination ([3]; isolate EC-03) of the same compound?
A: 1 µg/mL

Q: And the MIC alone ([3]; isolate EC-04)?
A: 4 µg/mL

Q: What about the MIC combination ([3]; isolate EC-04) of the same compound?
A: 1 µg/mL

Q: And the MIC alone ([3]; isolate EC-05)?
A: 1 µg/mL

Q: And the MIC combination ([3]; isolate EC-05)?
A: 0.0625 µg/mL

Q: And the MIC alone ([3]; isolate EC-06)?
A: 16 µg/mL

Q: What about the MIC combination ([3]; isolate EC-06) of the same compound?
A: 4 µg/mL

Q: What about the MIC alone ([3]; isolate EC-07) of the same compound?
A: 16 µg/mL

Q: What about the MIC combination ([3]; isolate EC-07) of the same compound?
A: 2 µg/mL

Q: What about the MIC alone ([3]; isolate EC-08) of the same compound?
A: 1 µg/mL

Q: What about the MIC combination ([3]; isolate EC-08) of the same compound?
A: 0.25 µg/mL

Q: What about the MIC alone ([3]; isolate EC-09) of the same compound?
A: 32 µg/mL

Q: What about the MIC combination ([3]; isolate EC-09) of the same compound?
A: 4 µg/mL

Q: What about the MIC alone ([3]; isolate EC-10) of the same compound?
A: 16 µg/mL

Q: What about the MIC combination ([3]; isolate EC-10) of the same compound?
A: 2 µg/mL

Q: And the MIC combination ([4]; isolate KP-01)?
A: 16 µg/mL

Q: And the MIC combination ([4]; isolate KP-02)?
A: 16 µg/mL

Q: What about the MIC combination ([4]; isolate KP-03) of the same compound?
A: 512 µg/mL

Q: And the MIC combination ([4]; isolate KP-04)?
A: 512 µg/mL

Q: And the MIC combination ([4]; isolate KP-05)?
A: 512 µg/mL

Q: And the MIC combination ([4]; isolate KP-06)?
A: 32 µg/mL

Q: What about the MIC combination ([4]; isolate KP-07) of the same compound?
A: 256 µg/mL

Q: What about the MIC combination ([4]; isolate KP-08) of the same compound?
A: 512 µg/mL

Q: What about the MIC combination ([4]; isolate KP-09) of the same compound?
A: 512 µg/mL

Q: What about the MIC combination ([4]; isolate KP-10) of the same compound?
A: 32 µg/mL
